Format in all cases: cell-based
One test addresses T1, human mGlu1 receptor (Homo sapiens, UniProt Q13255).
T1 construct: expressed in transfected cells; host or cells: AV12 cells, co-expressing rat EAAT1
The test can be described thus: FLIPR calcium assay for mGlu receptor selectivity, mGlu1 antagonist mode. The note with it: inhibition of EC90 glutamate response, read-out: mGlu1 % inhib. @12.5 μM. The source says: (§1) FLIPR and cAMP Assays for mGlu Receptor Selectivity
(§2) The relative antagonist potencies of the compounds of the invention for the other human mGlu receptors can be assessed with either a cAMP assay or fluorometric calcium response assay (see for example Fell et al., JPET (in press)). Briefly, individual AV12 cell lines containing the rat EAAT1 glutamate transporter and stably expressing the human mGlu1, 2, 3, 4, 5, 6, & 8 receptors are used for these studies. The mGlu1 and 5 receptors are […], so they naturally signal through phospholipase C, producing a calcium flux response which can be used to measure receptor activation using a Fluorometric Imaging Plate Reader (FLIPR, Molecular Devices). The cell lines expressing the mGlu2, 3, 4, and 8 receptor are designed to express the Gα15 subunit so that these Gi-coupled receptors will generate a calcium flux response similar to the mGlu1 and 5 receptor expressing cell lines. The mGlu6 receptor is tested in a cAMP format using methods analogous to those developed for mGlu2 and mGlu3 above. These cell lines are maintained as previously described except that amounts of L-glutamine and selection agents (geneticin, hygromycin B, zeocin, and blasticidin) may vary depending on the cell line. Confluent cultures are passaged biweekly.
(§3) Intracellular calcium levels are monitored using FLIPR before and after the addition of test compounds and Fluo-3 AM (Invitrogen) or Calcium 4 (Molecular Devices) dye, depending on the cell line. Cells are plated 24 hours prior to assay in a variable concentration of glutamine and a variable density of cells per well, depending on the cell line. The medium is removed and the cells are incubated with 8 μM of dye (50 μl per well) for 90 or 120 minutes (depending on cell line) at 25° C. A single-addition FLIPR assay generating an 11-point concentration response curve for the agonist glutamate is conducted prior to each experiment to confirm the appropriate sensitivity of the cells. The results are analyzed using GraphPad Prism v4.03 to calculate the concentrations of glutamate needed to induce the EC90 (antagonist assay) and EC10 (potentiator assay) responses.
(§4) Compounds are tested at each mGlu receptor in a two-addition FLIPR assay using a 10-point concentration response profile starting at a final concentration of 25 μM for the agonist assay and 12.5 μM for the potentiator and antagonist assays. The first addition detects any agonist activity, and the second addition consists of 100 μl of select concentrations (depending on cell line) of glutamate in assay buffer generating an EC10 or EC90 glutamate response. Agonist effects are quantified as percent stimulation induced by compound alone relative to the maximal glutamate response. Antagonist effects are quantified by calculating the percent inhibition of the EC90 glutamate response caused by the compound. Potentiation effects are quantified as percent increase in the presence of an EC10 response in glutamate relative to the ECmax response. All data are calculated as relative IC50 or EC50 values using a four-parameter logistic curve fitting program (ActivityBase v5.3.1.22).

In another test the target is T2, human mGlu4 receptor (Homo sapiens, UniProt Q14833).
T2 construct: expressed in transfected cells; host or cells: AV12 cells, co-expressing rat EAAT1 and Galpha15
T2 sequence (Q14833 33-912): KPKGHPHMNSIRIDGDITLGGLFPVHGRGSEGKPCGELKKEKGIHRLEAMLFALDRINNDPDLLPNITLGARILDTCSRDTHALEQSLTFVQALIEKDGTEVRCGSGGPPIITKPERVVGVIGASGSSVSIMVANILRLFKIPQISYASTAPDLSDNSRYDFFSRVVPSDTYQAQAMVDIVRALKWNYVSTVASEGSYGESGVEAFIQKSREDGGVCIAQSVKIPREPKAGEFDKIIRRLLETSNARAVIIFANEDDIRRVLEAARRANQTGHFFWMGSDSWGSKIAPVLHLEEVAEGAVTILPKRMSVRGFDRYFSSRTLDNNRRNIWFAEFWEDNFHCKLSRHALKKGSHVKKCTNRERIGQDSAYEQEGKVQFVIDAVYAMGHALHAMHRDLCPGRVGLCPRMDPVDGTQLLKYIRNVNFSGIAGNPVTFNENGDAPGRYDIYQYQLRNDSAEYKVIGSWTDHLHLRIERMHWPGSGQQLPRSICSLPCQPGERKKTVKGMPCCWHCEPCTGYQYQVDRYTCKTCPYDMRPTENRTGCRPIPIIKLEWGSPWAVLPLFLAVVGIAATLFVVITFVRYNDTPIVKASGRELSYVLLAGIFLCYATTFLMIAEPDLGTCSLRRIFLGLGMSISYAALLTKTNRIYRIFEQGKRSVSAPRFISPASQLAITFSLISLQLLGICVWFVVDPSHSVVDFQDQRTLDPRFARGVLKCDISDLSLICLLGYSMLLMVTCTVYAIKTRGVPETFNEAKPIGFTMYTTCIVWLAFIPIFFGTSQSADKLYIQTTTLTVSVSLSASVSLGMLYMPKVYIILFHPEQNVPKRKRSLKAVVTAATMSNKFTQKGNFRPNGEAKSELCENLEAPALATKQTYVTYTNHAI
The test can be described thus: FLIPR calcium assay for mGlu receptor selectivity, mGlu4 antagonist mode. As to conditions: inhibition of EC90 glutamate response, read-out: mGlu4 % inhib. @12.5 μM.
Excerpt: as §1, §2, §3, §4

In a further test the target is T3, human mGlu5 receptor (Homo sapiens, UniProt P41594).
T3 construct: expressed in transfected cells; host or cells: AV12 cells, co-expressing rat EAAT1
T3 sequence (P41594 19-1212 limits assumed): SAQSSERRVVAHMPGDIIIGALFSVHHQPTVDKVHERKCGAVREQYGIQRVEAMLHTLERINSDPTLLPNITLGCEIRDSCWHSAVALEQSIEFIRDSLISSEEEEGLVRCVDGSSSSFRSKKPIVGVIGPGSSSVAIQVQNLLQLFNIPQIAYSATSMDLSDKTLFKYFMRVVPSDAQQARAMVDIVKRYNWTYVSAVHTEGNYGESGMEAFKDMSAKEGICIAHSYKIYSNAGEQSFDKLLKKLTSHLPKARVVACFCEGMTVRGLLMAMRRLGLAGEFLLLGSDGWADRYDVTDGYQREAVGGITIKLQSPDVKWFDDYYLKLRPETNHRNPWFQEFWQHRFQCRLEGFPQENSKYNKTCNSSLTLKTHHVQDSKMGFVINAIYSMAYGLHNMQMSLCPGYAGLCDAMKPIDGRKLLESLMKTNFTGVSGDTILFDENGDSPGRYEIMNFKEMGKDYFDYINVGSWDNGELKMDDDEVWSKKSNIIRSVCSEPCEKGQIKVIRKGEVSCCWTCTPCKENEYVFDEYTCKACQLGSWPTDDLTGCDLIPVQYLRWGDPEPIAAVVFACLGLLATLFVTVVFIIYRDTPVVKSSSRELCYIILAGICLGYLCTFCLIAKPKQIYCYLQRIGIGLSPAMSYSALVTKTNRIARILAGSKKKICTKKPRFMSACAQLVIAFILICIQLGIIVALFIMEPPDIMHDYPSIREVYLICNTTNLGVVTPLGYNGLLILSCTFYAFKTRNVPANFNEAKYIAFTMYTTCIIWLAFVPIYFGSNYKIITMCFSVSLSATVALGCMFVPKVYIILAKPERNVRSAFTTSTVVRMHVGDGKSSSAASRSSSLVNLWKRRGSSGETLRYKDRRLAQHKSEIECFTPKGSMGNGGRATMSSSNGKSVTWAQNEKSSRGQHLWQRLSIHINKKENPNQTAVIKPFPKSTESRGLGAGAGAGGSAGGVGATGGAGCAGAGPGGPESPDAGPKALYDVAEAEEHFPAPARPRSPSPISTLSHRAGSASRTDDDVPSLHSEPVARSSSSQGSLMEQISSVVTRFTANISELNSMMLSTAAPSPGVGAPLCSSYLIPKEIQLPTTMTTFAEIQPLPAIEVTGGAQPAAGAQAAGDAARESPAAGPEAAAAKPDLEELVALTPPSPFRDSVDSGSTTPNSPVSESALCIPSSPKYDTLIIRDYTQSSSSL
The test can be described thus: FLIPR calcium assay for mGlu receptor selectivity, mGlu5 antagonist mode. As to conditions: inhibition of EC90 glutamate response, read-out: mGlu5 % inhib. @12.5 μM.
Excerpt: as §1, §2, §3, §4

In the next test the target is T4, human mGlu6 receptor (Homo sapiens, UniProt O15303).
T4 construct: expressed in transfected cells; host or cells: AV12 cells, co-expressing rat EAAT1
T4 sequence (O15303 25-877): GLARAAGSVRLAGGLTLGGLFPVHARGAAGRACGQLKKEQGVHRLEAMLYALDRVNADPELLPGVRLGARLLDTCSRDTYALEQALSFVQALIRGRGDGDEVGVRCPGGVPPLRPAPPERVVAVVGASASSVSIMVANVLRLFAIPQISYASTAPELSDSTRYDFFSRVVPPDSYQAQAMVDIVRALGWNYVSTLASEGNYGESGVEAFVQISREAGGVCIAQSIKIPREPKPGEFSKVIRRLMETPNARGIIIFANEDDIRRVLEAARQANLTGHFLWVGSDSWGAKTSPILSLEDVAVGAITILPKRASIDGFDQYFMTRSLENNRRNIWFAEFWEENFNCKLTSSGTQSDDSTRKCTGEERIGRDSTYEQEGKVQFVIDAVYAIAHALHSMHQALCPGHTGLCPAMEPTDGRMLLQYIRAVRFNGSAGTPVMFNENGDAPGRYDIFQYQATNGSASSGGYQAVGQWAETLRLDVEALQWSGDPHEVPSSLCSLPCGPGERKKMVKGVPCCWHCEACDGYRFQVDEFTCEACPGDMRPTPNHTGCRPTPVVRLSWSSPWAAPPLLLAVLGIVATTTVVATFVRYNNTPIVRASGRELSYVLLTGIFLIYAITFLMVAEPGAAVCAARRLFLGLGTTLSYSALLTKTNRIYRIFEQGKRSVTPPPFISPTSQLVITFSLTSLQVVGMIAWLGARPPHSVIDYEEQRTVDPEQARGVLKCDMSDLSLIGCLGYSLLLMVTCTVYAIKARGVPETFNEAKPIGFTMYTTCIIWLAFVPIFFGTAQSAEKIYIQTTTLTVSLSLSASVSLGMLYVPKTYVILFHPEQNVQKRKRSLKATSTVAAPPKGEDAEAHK
Briefly: mGlu6 cAMP antagonist assay (reference agonist L-AP4). As to conditions: cAMP format.
Excerpt: as §1, §2
Antagonist activity in mGlu6 cells is measured using cAMP in a method analogous to that described above for mGlu2 and mGlu3 activity, except that the reference agonist was L-AP4 (Tocris). […] Relative IC50 and EC50 values are calculated from the top-bottom range of the concentration response curve using a four-parameter logistic curve fitting program (ActivityBase v5.3.1.22).

In the next test the target is T5, human mGlu8 receptor (Homo sapiens, UniProt O00222).
T5 construct: expressed in transfected cells; host or cells: AV12 cells, co-expressing rat EAAT1 and Galpha15
T5 sequence (O00222 34-908): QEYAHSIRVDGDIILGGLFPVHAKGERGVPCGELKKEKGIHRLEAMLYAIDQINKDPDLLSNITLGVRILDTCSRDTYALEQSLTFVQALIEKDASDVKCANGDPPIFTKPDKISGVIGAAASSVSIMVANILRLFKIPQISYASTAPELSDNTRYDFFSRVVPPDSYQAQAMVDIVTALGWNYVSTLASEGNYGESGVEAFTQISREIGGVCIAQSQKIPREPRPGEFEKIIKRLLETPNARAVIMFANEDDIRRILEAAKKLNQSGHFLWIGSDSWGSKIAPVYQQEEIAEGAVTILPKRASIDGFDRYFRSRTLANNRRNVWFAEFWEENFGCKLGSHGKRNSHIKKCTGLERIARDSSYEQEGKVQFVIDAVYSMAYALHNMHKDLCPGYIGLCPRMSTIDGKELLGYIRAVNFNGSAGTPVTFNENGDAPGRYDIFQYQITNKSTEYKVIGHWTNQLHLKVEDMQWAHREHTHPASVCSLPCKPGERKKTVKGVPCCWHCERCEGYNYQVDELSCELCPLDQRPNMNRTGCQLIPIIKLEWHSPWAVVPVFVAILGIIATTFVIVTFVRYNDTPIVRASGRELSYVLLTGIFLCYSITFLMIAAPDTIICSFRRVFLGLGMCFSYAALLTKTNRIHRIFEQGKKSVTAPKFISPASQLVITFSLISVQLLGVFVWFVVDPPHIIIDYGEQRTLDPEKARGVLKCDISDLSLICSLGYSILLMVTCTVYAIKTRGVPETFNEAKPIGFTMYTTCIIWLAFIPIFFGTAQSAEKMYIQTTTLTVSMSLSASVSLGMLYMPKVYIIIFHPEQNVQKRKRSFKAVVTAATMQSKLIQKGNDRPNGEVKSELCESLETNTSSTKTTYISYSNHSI
The test can be described thus: FLIPR calcium assay for mGlu receptor selectivity, mGlu8 antagonist mode. As to conditions: for inhibition at 12.5 µM: inhibition of EC90 glutamate response, read-out: mGlu8 % inhib. @12.5 μM; for IC50: printed in brackets below the % inhib. value.
Excerpt: as §1, §2, §3, §4

T1 sequence (Q13255 19-1194): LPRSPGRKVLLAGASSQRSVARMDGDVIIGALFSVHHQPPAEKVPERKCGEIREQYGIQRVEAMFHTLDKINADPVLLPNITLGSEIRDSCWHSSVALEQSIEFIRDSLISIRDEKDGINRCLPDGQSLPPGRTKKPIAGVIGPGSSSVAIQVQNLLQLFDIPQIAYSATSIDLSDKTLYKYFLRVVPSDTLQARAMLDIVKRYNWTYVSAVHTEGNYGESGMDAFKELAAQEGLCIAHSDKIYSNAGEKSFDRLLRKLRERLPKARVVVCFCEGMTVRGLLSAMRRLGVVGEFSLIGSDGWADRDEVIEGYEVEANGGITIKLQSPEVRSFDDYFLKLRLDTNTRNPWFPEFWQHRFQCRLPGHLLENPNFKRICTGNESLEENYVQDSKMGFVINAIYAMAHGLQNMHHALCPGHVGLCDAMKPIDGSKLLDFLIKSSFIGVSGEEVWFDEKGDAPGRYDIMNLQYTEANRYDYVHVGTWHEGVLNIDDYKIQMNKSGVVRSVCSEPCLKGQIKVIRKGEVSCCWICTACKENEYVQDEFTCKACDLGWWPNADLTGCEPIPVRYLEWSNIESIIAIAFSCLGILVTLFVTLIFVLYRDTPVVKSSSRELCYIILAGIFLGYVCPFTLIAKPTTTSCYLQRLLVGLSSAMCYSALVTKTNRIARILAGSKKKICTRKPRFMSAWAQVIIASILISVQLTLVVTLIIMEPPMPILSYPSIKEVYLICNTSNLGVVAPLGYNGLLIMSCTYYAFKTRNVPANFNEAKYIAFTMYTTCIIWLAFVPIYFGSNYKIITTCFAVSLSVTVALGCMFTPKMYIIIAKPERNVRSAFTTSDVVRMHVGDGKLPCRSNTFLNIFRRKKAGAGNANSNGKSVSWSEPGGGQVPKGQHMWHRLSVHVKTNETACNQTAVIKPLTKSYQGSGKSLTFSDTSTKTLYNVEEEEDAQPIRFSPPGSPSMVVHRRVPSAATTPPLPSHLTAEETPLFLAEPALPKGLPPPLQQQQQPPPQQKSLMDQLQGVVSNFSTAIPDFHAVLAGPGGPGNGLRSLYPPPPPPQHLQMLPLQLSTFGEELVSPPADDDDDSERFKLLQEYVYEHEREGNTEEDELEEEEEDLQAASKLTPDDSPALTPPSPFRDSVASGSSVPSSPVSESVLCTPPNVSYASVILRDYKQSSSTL

As for `Cl.N[C@]1(C(=O)O)[C@@H]2[C@@H](C(=O)O)[C@@H]2[C@H](NC(=O)CO)[C@H]1OCc1ccc(Cl)c(Cl)c1` [Example 9, (1S,2R,3R,4S,5R,6S)-2-Amino-3-[(3,4-dichlorobenzyl)oxy]-4-[(hydroxyacetyl)amino]bicyclo[3.1.0]hexane-2,6-dicarboxylic acid hydrochloride], the inhibition at 12.5 µM is 5% on human mGlu1 receptor, 46.9% at human mGlu4 receptor, 13.8% at human mGlu5 receptor and 13.3% on human mGlu8 receptor. Also, the IC50 (usually the concentration needed to halve the response being measured) on human mGlu6 receptor stood at 2820 nM.
The corresponding values for `CC(=O)N[C@H]1[C@H]2[C@H](C(=O)O)[C@H]2[C@](N)(C(=O)O)[C@@H]1OCc1ccc(Cl)c(Cl)c1` [Example 4, (1S,2R,3R,4S,5R,6S)-4-(Acetylamino)-2-amino-3-[(3,4-dichlorobenzyl)oxy]bicyclo[3.1.0]hexane-2,6-dicarboxylic acid] are -2%, 13.3%, 22.6%, 23.4% and 2640 ± 424 nM.
`N[C@]1(C(=O)O)[C@@H]2[C@@H](C(=O)O)[C@@H]2[C@H](O)[C@H]1OCc1ccc(Cl)c(Cl)c1` [Example 1, (1S,2R,3S,4S,5R,6R)-2-Amino-3-[(3,4-dichlorobenzyl)oxy]-4-hydroxybicyclo[3.1.0]hexane-2,6-dicarboxylic acid]: the inhibition at 12.5 µM on human mGlu1 receptor is -0.47%; on human mGlu4 receptor, 28.5%; at human mGlu5 receptor, 4.8%; on human mGlu8 receptor, 78.4%. Further, the values for the IC50 at human mGlu6 receptor and on human mGlu8 receptor were 3300 nM and 1900 nM, respectively.
With `Cl.Cn1cnc(S[C@H]2[C@H]3[C@H](C(=O)O)[C@H]3[C@](N)(C(=O)O)[C@@H]2OCc2ccc(Cl)c(Cl)c2)n1` [Example 7, (1R,2R,3S,4S,5R,6R)-2-Amino-3-[(3,4-dichlorophenyl)methoxy]-4-[(1-methyl-1,2,4-triazol-3-yl)sulfanyl]bicyclo[3.1.0]hexane-2,6-dicarboxylic acid hydrochloride.], the inhibition at 12.5 µM at human mGlu1 receptor was 11.2%; on human mGlu4 receptor, 32.2%; on human mGlu5 receptor, 22.7%; at human mGlu8 receptor, 46.7%. Further, the IC50 at human mGlu6 receptor worked out at 3690 nM.
Take `N[C@]1(C(=O)O)[C@@H]2[C@@H](C(=O)O)[C@@H]2[C@H](Sc2nc[nH]n2)[C@H]1OCc1ccc(Cl)c(Cl)c1` [Example 2, (1R,2R,3S,4S,5R,6R)-2-Amino-3-[(3,4-dichlorobenzyl)oxy]-4-(1H-1,2,4-triazol-3-ylsulfanyl)bicyclo[3.1.0]hexane-2,6-dicarboxylic acid]: the inhibition at 12.5 µM on human mGlu1 receptor is 8.6%; at human mGlu4 receptor, 69%; at human mGlu5 receptor it was -12.9%; on human mGlu8 receptor it was 92.3%. Moreover, the IC50 at human mGlu6 receptor is 1290 ± 162 nM; on human mGlu8 receptor, 507 nM.

These data come from patent publication US9056844B2, “4-substituted-3-benzyloxy-bicyclo[3.1.0]hexane compounds as mGluR 2/3 antagonists” (Eli Lilly and Company, priority 2010, dated 2015).
